Legend:
[1] = system: blackgrass; assay: Test B pre/postemergence blackgrass; assay type: in vivo, Alopecurus myosuroides
In short: (§1)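 Test chemicals in a non-phytotoxic solvent mixture with surfactant were sprayed preemergence onto planted seeds and postemergence onto plants 2 to 18 cm tall (1- to 4-leaf stage). After twelve to sixteen days in a greenhouse, injury was visually rated against untreated controls from 0 (no effect) to 10 (complete control).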

[2] = system: surinam grass; assay: Test B pre/postemergence surinam grass; assay type: in vivo, Brachiaria decumbens
In short: as §1

[3] = system: cocklebur; assay: Test B pre/postemergence cocklebur; assay type: in vivo, Xanthium strumarium
In short: as §1

[4] = system: corn; assay: Test B pre/postemergence corn; assay type: in vivo, Zea mays
In short: as §1

[5] = system: crabgrass; assay: Test B pre/postemergence crabgrass; assay type: in vivo, Digitaria sanguinalis
In short: as §1

[6] = system: giant foxtail; assay: Test B pre/postemergence giant foxtail; assay type: in vivo, Setaria faberii
In short: as §1

[7] = system: morningglory; assay: Test B pre/postemergence morningglory; assay type: in vivo, Ipomoea hederacea
In short: as §1

[8] = system: rape; assay: Test B pre/postemergence rape; assay type: in vivo, Brassica napus
In short: as §1

[9] = system: soybean; assay: Test B pre/postemergence soybean; assay type: in vivo, Glycine max
In short: as §1

[10] = system: sugar beet; assay: Test B pre/postemergence sugar beet; assay type: in vivo, Beta vulgaris
In short: as §1

[11] = system: velvetleaf; assay: Test B pre/postemergence velvetleaf; assay type: in vivo, Abutilon theophrasti
In short: as §1

[12] = system: wheat; assay: Test B pre/postemergence wheat; assay type: in vivo, Triticum aestivum
In short: as §1

[13] = system: wild oat; assay: Test B pre/postemergence wild oat; assay type: in vivo, Avena fatua
In short: as §1

[14] = system: purple nutsedge; assay: Test B pre/postemergence purple nutsedge; assay type: in vivo, Cyperus rotundus
In short: as §1

[15] = system: smallflower flatsedge; assay: Test B flood test smallflower flatsedge; assay type: in vivo, Cyperus difformis
In short: (§2)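 Read-out is a visual response score from 0 (no effect) to 10 (complete control), assigned by comparison with untreated controls. Treatment was applied at the 2-leaf stage, and plants stayed in the greenhouse for twelve to sixteen days before scoring.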

[16] = system: duck salad; assay: Test B flood test duck salad; assay type: in vivo, Heteranthera limosa
In short: as §2

[17] = Postemergence, Rate 62 g/ha, scale 0 to 10, 0 is no effect, 10 is complete control
[18] = Postemergence, Rate 125 g/ha, scale of 0 to 10 where 0 is no effect and 10 is complete control
[19] = Postemergence, Rate 500 g/ha, scale of 0 to 10 where 0 is no effect and 10 is complete control
[20] = Preemergence, Rate 62 g/ha, scale of 0 to 10 where 0 is no effect and 10 is complete control
[21] = Preemergence, Rate 125 g/ha, scale of 0 to 10 where 0 is no effect and 10 is complete control
[22] = Preemergence, Rate 250 g/ha, scale 0 to 10 (0 no effect, 10 complete control)
[23] = Preemergence, Rate 500 g/ha, scale of 0 to 10 where 0 is no effect and 10 is complete control
[24] = Postemergence, Rate 250 g/ha, scale of 0 to 10, 0 is no effect, 10 is complete control
[25] = Rate 62 g/ha, flood test species, Pre-emergence, visual evaluation after twelve to sixteen days
[26] = Rate 125 g/ha, under heading Pre-emergence, flood test species, visual evaluation after twelve to sixteen days
[27] = Rate 250 g/ha, Pre-emergence (flood test species), scale 0 to 10, 0 is no effect, 10 is complete control
[28] = Rate 500 g/ha, Pre-emergence section of Table B, 0 to 10 scale (0 no effect, 10 complete control)

CC(C)N(C(=O)n1oc(=O)n(CC(=O)C2CCC2)c1=O)c1ccc(F)cc1 [Compound 640]
Plant response rating, Blackgrass [1, 17]: 0 | Plant response rating, Blackgrass [1, 18]: 4 | Plant response rating, Blackgrass [1, 19]: 5 | Blackgrass plant response rating [1, 20]: 0 | Blackgrass plant response rating [1, 21]: 0 | Plant response rating, Blackgrass [1, 22]: 0 | Plant response rating, Blackgrass [1, 23]: 8 | Plant response rating, B. signalgrass [2, 17]: 0 | Plant response rating, B. signalgrass [2, 18]: 0 | B. signalgrass plant response rating [2, 24]: 0 | Plant response rating, B. signalgrass [2, 19]: 4 | B. signalgrass plant response rating [2, 20]: 0 | B. signalgrass plant response rating [2, 21]: 2 | Plant response rating, B. signalgrass [2, 22]: 4 | Plant response rating, B. signalgrass [2, 23]: 9 | Plant response rating, Cocklebur [3, 17]: 0 | Plant response rating, Cocklebur [3, 18]: 0 | Cocklebur plant response rating [3, 24]: 2 | Plant response rating, Cocklebur [3, 19]: 5 | Cocklebur plant response rating [3, 20]: 0 | Cocklebur plant response rating [3, 21]: 0 | Plant response rating, Cocklebur [3, 22]: 0 | Plant response rating, Cocklebur [3, 23]: 0 | Plant response rating, Corn [4, 17]: 0 | Plant response rating, Corn [4, 18]: 0 | Corn plant response rating [4, 24]: 0 | Plant response rating, Corn [4, 19]: 0 | Corn plant response rating [4, 20]: 0 | Corn plant response rating [4, 21]: 0 | Plant response rating, Corn [4, 22]: 0 | Plant response rating, Corn [4, 23]: 0 | Plant response rating, Crabgrass [5, 17]: 0 | Plant response rating, Crabgrass [5, 18]: 2 | Crabgrass plant response rating [5, 24]: 3 | Plant response rating, Crabgrass [5, 19]: 6 | Crabgrass plant response rating [5, 20]: 3 | Crabgrass plant response rating [5, 21]: 3 | Plant response rating, Crabgrass [5, 22]: 9 | Plant response rating, Crabgrass [5, 23]: 10 | Plant response rating, Giant foxtail [6, 17]: 0 | Plant response rating, Giant foxtail [6, 18]: 0 | Giant foxtail plant response rating [6, 24]: 0 | Plant response rating, Giant foxtail [6, 19]: 4 | Giant foxtail plant response rating [6, 20]: 9 | Giant foxtail plant response rating [6, 21]: 9 | Plant response rating, Giant foxtail [6, 22]: 10 | Plant response rating, Giant foxtail [6, 23]: 9 | Plant response rating, Morningglory [7, 17]: 0 | Plant response rating, Morningglory [7, 18]: 3 | Morningglory plant response rating [7, 24]: 6 | Plant response rating, Morningglory [7, 19]: 6 | Morningglory plant response rating [7, 20]: 0 | Morningglory plant response rating [7, 21]: 0 | Plant response rating, Morningglory [7, 22]: 0 | Plant response rating, Morningglory [7, 23]: 0 | Plant response rating, Rape [8, 17]: 0 | Plant response rating, Rape [8, 18]: 0 | Rape plant response rating [8, 24]: 0 | Plant response rating, Rape [8, 19]: 0 | Rape plant response rating [8, 20]: 0 | Rape plant response rating [8, 21]: 0 | Plant response rating, Rape [8, 22]: 3 | Plant response rating, Rape [8, 23]: 6 | Plant response rating, Soybean [9, 17]: 0 | Plant response rating, Soybean [9, 18]: 0 | Soybean plant response rating [9, 24]: 0 | Soybean plant response rating [9, 20]: 0 | Soybean plant response rating [9, 21]: 0 | Plant response rating, Soybean [9, 22]: 0 | Plant response rating, Soybean [9, 23]: 0 | Plant response rating, Sugarbeets [10, 17]: 0 | Plant response rating, Sugarbeets [10, 18]: 0 | Sugarbeets plant response rating [10, 24]: 0 | Sugarbeets plant response rating [10, 20]: 0 | Sugarbeets plant response rating [10, 21]: 2 | Plant response rating, Sugarbeets [10, 22]: 6 | Plant response rating, Sugarbeets [10, 23]: 6 | Plant response rating, Velvetleaf [11, 17]: 0 | Plant response rating, Velvetleaf [11, 18]: 3 | Velvetleaf plant response rating [11, 24]: 3 | Velvetleaf plant response rating [11, 20]: 0 | Velvetleaf plant response rating [11, 21]: 0 | Plant response rating, Velvetleaf [11, 22]: 0 | Plant response rating, Velvetleaf [11, 23]: 0 | Plant response rating, Wheat [12, 17]: 0 | Plant response rating, Wheat [12, 18]: 0 | Wheat plant response rating [12, 24]: 0 | Wheat plant response rating [12, 20]: 0 | Wheat plant response rating [12, 21]: 0 | Plant response rating, Wheat [12, 22]: 0 | Plant response rating, Wheat [12, 23]: 2 | Plant response rating, Wild oats [13, 17]: 0 | Plant response rating, Wild oats [13, 18]: 0 | Wild oats plant response rating [13, 24]: 0 | Wild oats plant response rating [13, 20]: 0 | Wild oats plant response rating [13, 21]: 0 | Plant response rating, Wild oats [13, 22]: 3 | Plant response rating, Wild oats [13, 23]: 6 | Plant response rating, Nutsedge [14, 17]: 0 | Plant response rating, Nutsedge [14, 18]: 0 | Nutsedge plant response rating [14, 24]: 0 | Nutsedge plant response rating [14, 20]: 0 | Nutsedge plant response rating [14, 21]: 0 | Plant response rating, Nutsedge [14, 23]: 0 | Plant response rating, S. Flatsedge (0 to 10 scale, 0 is no effect, 10 is complete control) [15, 25]: 0 | S. Flatsedge plant response rating (0 to 10 scale, 0 is no effect, 10 is complete control) [15, 26]: 0 | S. Flatsedge plant response rating [15, 27]: 0 | S. Flatsedge plant response rating [15, 28]: 0 | Plant response rating, Ducksalad (0 to 10 scale, 0 is no effect, 10 is complete control) [16, 25]: 0 | Ducksalad plant response rating (0 to 10 scale, 0 is no effect, 10 is complete control) [16, 26]: 0 | Ducksalad plant response rating [16, 27]: 0 | Ducksalad plant response rating [16, 28]: 0
